In PubChem BioAssay (NCI) one finds TGI data, which are given here for ten compounds.

Among the test systems are KM12 colon; SK-MEL-2 melanoma; MALME-3M melanoma; NCI-H226 lung; OVCAR-5 ovarian; COLO 205 colon; HCC-2998 colon; HOP-92 NSCLC; DLD-1 colon; HL-60(TB) leukemia; A549 NSCLC; SR leukemia; HCT-116 colon; SNB-75 CNS; M14 melanoma.
What all share (test): NCI anticancer screen, dose series, 48 h

The structures appear in SMILES notation.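 Each compound was tested at five concentrations against cells in 96-well plates for 48 hours. TGI: concentration producing complete growth inhibition.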

Take `NC1=C(O)/C(=N/NS(=O)(=O)c2ccccc2)C(c2ccc3c(c2)OCO3)O1` (configuration not stated): the TGI with KM12 colon, in the test on SK-MEL-2 melanoma, with MALME-3M melanoma, in the test with NCI-H226 lung, in the test with OVCAR-5 ovarian and in the test with COLO 205 colon was over 100 µM throughout. Also, the TGI in the test with HCC-2998 colon, with HOP-92 NSCLC, in the test with DLD-1 colon, with HL-60(TB) leukemia, with A549 NSCLC and in the test on SR leukemia was over 100 µM in each case. Further, the TGI with HCT-116 colon, in the test on SNB-75 CNS and in the test on M14 melanoma was over 100 µM throughout.
Regarding `Cc1ccc([N+](=O)[O-])cc1NC(=O)C(=O)Cc1nc2ccc(C(=O)c3ccccc3)cc2[nH]c1=O`, the TGI with KM12 colon, with MALME-3M melanoma, in the test with NCI-H226 lung, in the test on COLO 205 colon, in the test with HCC-2998 colon and with HOP-92 NSCLC was over 100 µM throughout. Further, the TGI with DLD-1 colon, in the test with HL-60(TB) leukemia, in the test with A549 NSCLC, in the test on SR leukemia, in the test with HCT-116 colon and with SNB-75 CNS was over 100 µM throughout. Besides, the TGI in the test on M14 melanoma was over 100 µM.
Take `O=C(/C=C/c1ccc(-c2ccccc2)cc1)c1ccccc1`: the TGI is 40.6 µM with KM12 colon; 33.6 µM in the test with SK-MEL-2 melanoma; over 100 µM in the test on MALME-3M melanoma; 49.3 µM in the test with NCI-H226 lung; 41 µM in the test on OVCAR-5 ovarian; 52.7 µM in the test with COLO 205 colon. The TGI in the test on HCC-2998 colon is 33.7 µM; in the test on HOP-92 NSCLC, 51.7 µM; in the test with DLD-1 colon, over 100 µM; in the test on HL-60(TB) leukemia, over 100 µM; with A549 NSCLC it was 56.3 µM; in the test on SR leukemia, 87.1 µM. For the same compound, the results for the TGI in the test with HCT-116 colon, in the test with SNB-75 CNS and with M14 melanoma were 30.2 µM, over 100 µM and over 100 µM, respectively.
As for `CC(C)(C)OC(=O)NC(Cc1ccccc1)C(=S)N1CCCC1` (configuration not stated), the TGI in the test on KM12 colon, with SK-MEL-2 melanoma, in the test with MALME-3M melanoma, with NCI-H226 lung, with OVCAR-5 ovarian and in the test on COLO 205 colon was over 100 µM in each case. The TGI with HCC-2998 colon, in the test on HOP-92 NSCLC, in the test with DLD-1 colon, in the test on HL-60(TB) leukemia, with A549 NSCLC and in the test on HCT-116 colon was over 100 µM throughout. Moreover, the TGI in the test on SNB-75 CNS and in the test on M14 melanoma was over 100 µM throughout.
For `CC(=O)NNc1ncc(C(=O)/C=C/c2ccccc2C)s1`, the TGI in the test with KM12 colon, in the test on SK-MEL-2 melanoma, in the test on MALME-3M melanoma, in the test with OVCAR-5 ovarian, with COLO 205 colon and in the test on HCC-2998 colon was over 100 µM throughout. The TGI with HOP-92 NSCLC, in the test with DLD-1 colon, in the test with HL-60(TB) leukemia, with A549 NSCLC and in the test with SNB-75 CNS was over 100 µM in each case.
For the compound `O=C(NC1CCCCC1)NC12CC3CC(CC(F)(C3)C1)C2`, the TGI in the test with KM12 colon, in the test with SK-MEL-2 melanoma, in the test with MALME-3M melanoma, in the test on OVCAR-5 ovarian, with COLO 205 colon and in the test with HCC-2998 colon was over 100 µM in each case. For the same compound, the TGI in the test with HOP-92 NSCLC, in the test on DLD-1 colon, with HL-60(TB) leukemia, in the test with A549 NSCLC, in the test on HCT-116 colon and with SNB-75 CNS was over 100 µM each time. In the test with M14 melanoma, this compound showed a TGI of over 100 µM.
Consider `CC1=C(O)C(=O)C2C(=O)C1C(C)C2c1ccccc1` (configuration not stated), for which the TGI in the test on KM12 colon, in the test on SK-MEL-2 melanoma, with MALME-3M melanoma, in the test with NCI-H226 lung, with OVCAR-5 ovarian and with COLO 205 colon was over 100 µM in each case. Besides, the TGI in the test with HCC-2998 colon, with HOP-92 NSCLC, with DLD-1 colon, in the test on A549 NSCLC, in the test with SR leukemia and in the test on SNB-75 CNS was over 100 µM throughout. In addition, in the test with M14 melanoma, the TGI was over 100 µM.
In the case of `OC(c1cc2ccccc2[nH]1)C(O)(c1cc2ccccc2[nH]1)c1cc2ccccc2[nH]1` (configuration not stated), the TGI with KM12 colon was over 245 µM; in the test with SK-MEL-2 melanoma it was 50 µM; with MALME-3M melanoma, 59.7 µM; in the test with NCI-H226 lung, 40.4 µM; in the test with OVCAR-5 ovarian, 102 µM; with COLO 205 colon, 8.85 µM. The TGI with HCC-2998 colon was 44.3 µM; with HOP-92 NSCLC, 50.1 µM; with DLD-1 colon it was 48 µM; with HL-60(TB) leukemia, 127 µM; with A549 NSCLC it was 63 µM; in the test with SR leukemia, over 245 µM. In the test with HCT-116 colon, the TGI was found to be 27.3 µM.
`CCCCN(C)CC(C(C)=O)C(c1ccccc1)c1c(O)c2ccccc2oc1=O` (configuration not stated): the TGI with KM12 colon, in the test with SK-MEL-2 melanoma, with MALME-3M melanoma, with NCI-H226 lung, with OVCAR-5 ovarian and with COLO 205 colon was over 100 µM each time. The TGI with DLD-1 colon, in the test with HL-60(TB) leukemia, with A549 NSCLC, with SR leukemia, with HCT-116 colon and with SNB-75 CNS was over 100 µM throughout. In the test on M14 melanoma, this compound displayed a TGI of over 100 µM.
For `Oc1ccc(O)c(-n2cccn2)c1`, the TGI in the test with KM12 colon is over 100 µM; with SK-MEL-2 melanoma it was 95.7 µM; with MALME-3M melanoma, over 100 µM; with OVCAR-5 ovarian, over 100 µM; in the test with COLO 205 colon, 46.2 µM; in the test with HCC-2998 colon, over 100 µM. The TGI is 93.2 µM in the test on HOP-92 NSCLC; over 100 µM in the test on DLD-1 colon; 44.8 µM with HL-60(TB) leukemia; over 100 µM in the test on A549 NSCLC; over 100 µM in the test with SNB-75 CNS; over 100 µM in the test with M14 melanoma.
